Laboratory results from US20150133512A1, “N-ARYLTRIAZOLE COMPOUNDS AS LPAR ANTAGONISTS” (Hoffmann-La Roche Inc,, priority 2012, published 2015).

Tests used:
LPA3 = molecular target: T1, LPA3 (Homo sapiens, UniProt Q9UBY5); experiment: Calcium flux assay using FLIPR, LPA3 antagonist activity; format: cell-based; details: for IC50: antagonist activity
T1 sequence (Q9UBY5 1-353): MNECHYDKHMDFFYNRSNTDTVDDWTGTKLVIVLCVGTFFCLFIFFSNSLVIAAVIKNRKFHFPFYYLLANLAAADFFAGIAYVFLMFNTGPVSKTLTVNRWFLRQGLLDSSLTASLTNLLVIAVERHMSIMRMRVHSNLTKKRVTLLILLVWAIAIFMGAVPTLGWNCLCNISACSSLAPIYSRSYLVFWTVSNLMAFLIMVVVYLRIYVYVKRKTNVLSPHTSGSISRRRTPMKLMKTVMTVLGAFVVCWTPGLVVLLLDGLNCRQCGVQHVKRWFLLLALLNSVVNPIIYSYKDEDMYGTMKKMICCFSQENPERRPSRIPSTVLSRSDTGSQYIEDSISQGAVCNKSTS
Protocol: (§1) Calcium Flux Assay Using Fluorometric Imaging Plate Reader (FLIPR)
(§2) Dye Loading and Assay: Loading Buffer (FLIPR Calcium-4, Molecular Devices) was prepared by dissolving the contents of one bottle into 100 mL Hank's Balanced Salt Solution containing 20 mM HEPES and 2.5 mM probenecid. Plates were loaded onto Biotek plate washer and growth media was removed and replaced with 20 μL of Hank's Balanced Salt Solution containing 20 mM HEPES and 2.5 mM probenecid, followed by 25 μL of Loading Buffer. The plates were then incubated for 30 minutes at 37° C.
During the incubation, test compounds were prepared by adding 90 μL of HBSS/20 mM HEPES/0.1% BSA buffer to 2 μL of serially diluted compounds. To prepare serial dilutions, 10 mM stocks of compounds were prepared in 100% DMSO. The compound dilution plate was set up as follows: well #1 received 29 μL of stock compound and 31 μL DMSO; wells 2-10 received 40 μL of DMSO; mixed and transferred 20 μL of solution from well #1 into well #2; continued with 1:3 serial dilutions out 10 steps; transferred 2 μL of diluted compound into duplicate wells of 384 well “assay plate” and then added the 90 μL of buffer.
After incubation, both the cell and “assay” plates were brought to the FLIPR and 20 μL of the diluted compounds were transferred to the cell plates by the FLIPR. Compound addition was monitored by FLIPR to detect any agonist activity of the compounds. Plates were then incubated for 30 minutes at room temperature protected from light. After the incubation, plates were returned to the FLIPR and 20 μL of 4.5× concentrated agonist was added to the cell plates. During the assay, fluorescence readings were taken simultaneously from all 384 wells of the cell plate every 1.5 seconds. Five readings were taken to establish a stable baseline, then 20 μL of sample was rapidly (30 μL/sec) and simultaneously added to each well of the cell plate. The fluorescence was continuously monitored before, during and after sample addition for a total elapsed time of 100 seconds. Responses (increase in peak fluorescence) in each well following agonist addition was determined. The initial fluorescence reading from each well, prior to ligand stimulation, was used as zero baseline value for the data from that well. The responses were expressed as % inhibition of the buffer control.

[1] = molecular target: human recombinant LPA1 Lysophospholipid receptor (Homo sapiens, UniProt Q92633); experiment: Calcium flux assay using FLIPR, LPA1 antagonist activity; format: cell-based; details: ChemiScreen Calcium-optimized stable cell line; antagonist mode, inhibition of agonist-induced calcium flux
Protocol: as §1
Cell Culture Conditions: The ChemiScreen Calcium-optimized stable cell line containing the human recombinant LPA1 Lysophospholipid receptor was purchased from Chemicon International, Inc./Millipore. The cells were cultured in DMEM-high glucose supplemented with 10% fetal bovine serum, 2 mM glutamine, 100 U/mL penicillin/100 μg/mL streptomycin, 1× non-essential amino acids, 10 mM HEPES and 0.25 mg/mL Geneticin. Cells were harvested with trypsin-EDTA and counted using ViaCount reagent. The cell suspension volume was adjusted to 2.0×10^5 cells/mL with complete growth media. Aliquots of 50 μL were dispensed into 384 well black/clear tissue culture treated plates (BD) and the microplates were placed in a 37° C. incubator overnight. The following day plates were used in the assay.
as §2
During the incubation, test compounds were prepared by adding 90 μL of HBSS/20 mM HEPES/0.1% BSA buffer to 2 μL of serially diluted compounds. To prepare serial dilutions, 10 mM stocks of compounds were prepared in 100% DMSO.
After incubation, both the cell and “assay” plates were brought to the FLIPR and 20 μL of the diluted compounds were transferred to the cell plates by the FLIPR. Compound addition was monitored by FLIPR to detect any agonist activity of the compounds. Plates were then incubated for 30 minutes at room temperature protected from light. […] During the assay, fluorescence readings were taken simultaneously from all 384 wells of the cell plate every 1.5 seconds. Five readings were taken to establish a stable baseline, then 20 μL of sample was rapidly (30 μL/sec) and simultaneously added to each well of the cell plate. The fluorescence was continuously monitored before, during and after sample addition for a total elapsed time of 100 seconds. Responses (increase in peak fluorescence) in each well following agonist addition was determined. The initial fluorescence reading from each well, prior to ligand stimulation, was used as zero baseline value for the data from that well. The responses were expressed as % inhibition of the buffer control.

Chain of human recombinant LPA1 Lysophospholipid receptor (Q92633 whole entry): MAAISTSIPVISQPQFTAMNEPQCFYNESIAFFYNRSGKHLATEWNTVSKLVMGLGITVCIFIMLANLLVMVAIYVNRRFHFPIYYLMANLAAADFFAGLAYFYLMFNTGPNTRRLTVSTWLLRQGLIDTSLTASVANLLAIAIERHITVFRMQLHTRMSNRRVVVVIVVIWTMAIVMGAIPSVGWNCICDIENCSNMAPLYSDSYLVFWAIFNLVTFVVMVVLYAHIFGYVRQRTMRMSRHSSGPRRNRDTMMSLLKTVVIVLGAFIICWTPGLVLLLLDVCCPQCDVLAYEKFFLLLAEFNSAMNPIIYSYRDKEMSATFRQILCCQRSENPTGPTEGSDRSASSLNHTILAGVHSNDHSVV

Row | Compound | IC50 (LPA3) [µM] | IC50 [1] [µM] | inhibition at 30 µM (LPA3; @ 30 μM) [%]
1 | Cc1nnn(-c2ccc(-c3ccc(C#N)cc3)cc2)c1NC(=O)O[C@H](C)c1ccccc1 [Example 28, [3-(4′-Cyano-biphenyl-4-yl)-5-methyl-3H-[1,2,3]triazol-4-yl]-carbamic acid (R)-1-phenyl-ethyl ester] | > 30 | > 30 | 
2 | Cc1nnn(-c2ccc(-c3ccc(C4(C(=O)NS(C)(=O)=O)CC4)cc3)cc2)c1NC(=O)O[C@H](C)c1ccccc1 [Example 30, {3-[4′-(1-Methanesulfonylaminocarbonyl-cyclopropyl)-biphenyl-4-yl]-5-methyl-3H[1,2,3]triazol-4-yl}-carbamic acid (R)-1-phenyl-ethyl ester] | > 30 | 0.033 | 
3 | Cc1c(NC(=O)O[C@H](C)c2ccccc2)nnn1-c1ccc(-c2ccc(CC(=O)O)cc2)cc1 [Example 4, {4′-[5-Methyl-4-((R)-1-phenyl-ethoxycarbonylamino)-[1,2,3]triazol-1-yl]-biphenyl-4-yl}-acetic acid] | > 30 | > 30 | 
4 | Cc1nnn(-c2ccc(-c3ccc(C4(C(=O)O)CC4)cc3)cc2)c1NC(=O)O[C@H](C)c1ccccc1C(F)(F)F [Example 6, 1-(4′-{4-Methyl-5-[(R)-1-(2-trifluoromethyl-phenyl)-ethoxycarbonylamino]-[1,2,3]triazol-1-yl}-biphenyl-4-yl)-cyclopropanecarboxylic acid] | 25.9 | 0.112 | 55.2
